Data on three compounds can be found in US11911477B2, “Use of fructose in preparing drug for treating ischemic injury” (Beihang University, priority 2021, dated 2024).

The subject of assay [1] is OGD-injured neurons. Description: CellTiter-Glo Luminescent cell viability of OGD-injured neurons. Conditions: OGD 1.5 h, 2 mM, after 24 h, FIG. 13. For orientation: In ATP-based viability assays light output follows the ATP content of the culture.
Experimental: The CellTiter-Glo® Luminescent cell viability test kit was used: the neuronal cells were cultured using a 96-well plate, and OGD treatment was conducted on neurons for 1.5 h on a 7th day; fructose, fructose-1,6-bisphosphate and glycerol fructose were added each at a concentration of 2 mM; after 24 h, the cell viability was detected by the kit.
For the next assay, the system named is MCAO rats. Description: MCAO rat model: Longa behavioral score and TTC cerebral infarct area. To be noted: for area of cerebral infarction (TTC staining) / neurobehavioral characteristics (Longa scoring): 24 h. It counts as in vivo.
The subject of assay [2] is OGD-injured neurons. Description: Survival of OGD-injured neurons (TUNEL and MAP2 staining), fructose at different stages. To be noted: 24 h reperfusion. It counts as cell-based. As for the experimental part:
(1) Cell model: the cerebral ischemic stroke was simulated using an OGD model, DIV7 primary neurons were treated with a glucose-free medium in a hypoxic box (1% O2+5% CO2+94% N2), oxygen glucose deprivation was conducted at 37° C. for 1.5 h, and the primary neurons was cultured in a normal medium for 24 h under normoxic conditions. (3) Survival of neurons: a survival state of neurons was counted by TUNEL staining and immunofluorescence staining; the neuronal cells were subjected to growing on glass coverslips, fixated with 4% PFA for 10 min, washed with PBS, and subjected to incubation in a blocking buffer for 1 h, and a MAP2 primary antibody working solution was added to conduct culture overnight at 4° C.; the cells were washed with PBS, a MAP2 secondary antibody working solution was added to incubate at room temperature for 1 h; the cells were washed with PBS, subjected to TUNEL staining, and a mounting agent containing 4′,6-diamidino-2-phenylindole (DAPI) was added for mounting. Data was collected through a focusing microscope and the number of cell deaths was counted using ImageJ. (1) Neuron survival: DIV7 neurons were divided into four groups: a control group, an OGD group (for OGD treatment), an OGD+Fru(per) group (fructose treatment during OGD treatment), and an OGD+Fru(post) group (fructose treatment in a reperfusion stage after OGD treatment). […]

The test system of assay [3] is DIV7 neurons. Description: CellTiter-Glo Luminescent cell viability of DIV7 neurons. It counts as cell-based. Conditions: for viability of DIV7 neurons: 0, 1, 2, 4, 6, 8 and 16 mM, each compared with the 0 mM group, FIG. 12. The source says:
Effects of different concentrations of fructose on the viability of DIV7 neurons were studied using a CellTiter-Glo® Luminescent cell viability test kit, and an added concentration of the fructose was explored in the cell system.

The test system of assay [4] is OGD-injured neurons. Description: ATP and NADPH content of OGD-injured neurons (lentiviral sensors), fructose at different stages. It counts as cell-based, mice. The source says:
(4) Content of ATP and NADPH: cortical neurons were isolated from P0-P1 suckling mice, the neurons were inoculated on a 7th day by adding a lentiviral transfection protein vector that specifically detects ATP and a lentiviral transfection protein vector iNap that specifically detects NADPH; the neurons were fixated with 4% PFA, subjected to immunofluorescence staining, and data was collected through a confocal microscope, the fluorescence intensity of virus vector protein was counted using ImageJ, and the contents of ATP and NADPH were calculated. By detecting an expression level of the lentiviral transfection protein vector that specifically detects ATP and the lentiviral transfection protein vector iNap that specifically detects NADPH in the primary neuron culture system, the levels are characterized for neuronal energy metabolism and redox metabolism. (2) Content of ATP and NADPH: cortical neurons were isolated from P0-P1 suckling mice, the neurons were inoculated on a 7th day by adding a lentiviral transfection protein vector that specifically detects ATP and a lentiviral transfection protein vector iNap that specifically detects NADPH; the neurons were divided into four groups: a control group, an OGD group (for OGD treatment), an OGD+Fru(per) group (fructose treatment during OGD treatment), and an OGD+Fru(post) group (fructose treatment in a reperfusion stage after OGD treatment). Reperfusion was conducted 24 h after OGD; the neurons were fixated with 4% PFA, subjected to MAP2 immunofluorescence staining to observe the content of ATP and NADPH of the neurons.

For assay [5], the system named is OGD-injured neurons. Description: Survival rate of OGD-treated neurons by MAP2 and DAPI immunofluorescence staining. Conditions: OGD 1.5 h, 2 mM, after 24 h, FIG. 14.
Experimental: Immunofluorescence staining method: the neurons were cultured for 7 d, and subjected to OGD treatment for 1.5 h; fructose, fructose-1,6-bisphosphate and glycerol fructose were added each at a concentration of 2 mM; after 24 h, MAP2 and DAPI staining were conducted.
For assay [6], the system named is DIV7 neurons. Description: IPC with fructose pathway inhibitor sorbinil: ATP and NADPH level of DIV7 neurons. It counts as cell-based, mice. Conditions: fructose pathway inhibited by sorbinil, cellular level. As for the experimental part: Secondly, to further verify effects of the fructose pathway in IPC ischemia protection, a fructose pathway inhibitor sorbinil was added at the cellular level. […] (4) Content of ATP and NADPH: cortical neurons were isolated from P0-P1 suckling mice, the neurons were inoculated on a 7th day by adding a lentiviral transfection protein vector that specifically detects ATP and a lentiviral transfection protein vector iNap that specifically detects NADPH; the neurons were fixated with 4% PFA, subjected to immunofluorescence staining, and data was collected through a confocal microscope, the fluorescence intensity of virus vector protein was counted using ImageJ, and the contents of ATP and NADPH were calculated.

Where [7] appears, read: intraperitoneal injection after suture plug removal (MCAO+Fru-2).
Where [8] appears, read: tail vein injection after suture plug removal (MCAO+Fru-1).
[9] abbreviates: fructose added in the OGD phase.
[10] abbreviates: fructose added in the reperfusion phase.

With `O=C(CO)[C@@H](O)[C@H](O)[C@H](O)CO` [fructose], the “cell viability of OGD-injured neurons” value in the assay on OGD-injured neurons [1] is listed as “can significantly increase the cell viability of OGD-injured neurons”. The “comparison of routes of administration (tail vein vs intraperitoneal)” value with MCAO rats (MCAO rats, neurobehavior and infarct area) is “tail vein injection is generally better than the intraperitoneal injection”. For the same compound, the “area of cerebral infarction (TTC staining)” value with MCAO rats (setting [7]) and with MCAO rats (setting [8]) was “reduce the area of cerebral infarction” throughout. The “neurobehavioral characteristics (Longa scoring)” value in the assay with MCAO rats (setting [7]) and in the assay on MCAO rats (setting [8]) was “can improve the neurobehavioral characteristics of MCAO rats” each time. In addition, the “neuronal death rate caused by OGD” value with OGD-injured neurons [2] (fructose added in the OGD phase (OGD+Fru(per))) and in the assay on OGD-injured neurons [2] (fructose added in the reperfusion phase (OGD+Fru(post))) was “can reduce the neuronal death rate caused by OGD” in each case. In the assay with DIV7 neurons [3], the “viability of DIV7 neurons” value was “can significantly enhance viability of the neurons”. Further, the “concentration with better effect of improving the activity of DIV7 neuronal cells” value in the assay on DIV7 neurons [3] (different concentrations of fructose, FIG. 11) lay in the range of 1 to 6 mM. Further, the “ATP production of neurons” value in the assay on OGD-injured neurons [4] (setting [9]) was “can enhance the decrease in ATP and NADPH production of neurons caused by OGD”; in the assay on OGD-injured neurons [4] (setting [10]), “can enhance the decrease in ATP and NADPH production of neurons caused by OGD”. Also, the “NADPH production of neurons” value was “can enhance the decrease in ATP and NADPH production of neurons caused by OGD” in the assay on OGD-injured neurons [4] (setting [9]); “can enhance the decrease in ATP and NADPH production of neurons caused by OGD” in the assay on OGD-injured neurons [4] (setting [10]).
On to `O=C(COP(=O)(O)O)[C@@H](O)[C@H](O)[C@H](O)COP(=O)(O)O` [reference compound], for which the “cell viability of OGD-injured neurons” value in the assay with OGD-injured neurons [1] is given as “have a tendency to increase the viability of OGD-injured neurons”. For the same compound, in the assay on OGD-injured neurons [5], the “survival rate of neurons after OGD” value is “can improve the survival rate of the neurons”. The “viability of DIV7 neurons” value in the assay on DIV7 neurons [3] is “can improve neuron viability”.
On to `O=C1NC(=O)[C@@]2(CCOc3ccc(F)cc32)N1` [sorbinil], for which the “content of ATP after IPC” value with DIV7 neurons [6] (FIGS. 4A-B) was “the IPC no longer increases the contents of ATP and NADPH”. The “content of NADPH after IPC” value in the assay with DIV7 neurons [6] (FIGS. 5A-B) is “the IPC no longer increases the contents of ATP and NADPH”.
